This is an account of results in patent publication US6362175B1, “Porphyrin compounds for imaging tissue oxygen” (The Trustees of the University of Pennsylvania, priority 1991, dated 2002).

Common to all, as to type: physicochemical
A short description of data set [1]: Absorption spectra (Soret and Q bands). On the procedure: (§1) Absorption spectra were recorded on a Beckman DU-64 spectrophotometer. Emission spectra (fluorescence and phosphorescence) were recorded using an AMINCO SPF-500C spectrofluorimeter. ^1H NMR spectra were recorded using a Brucker 300 MHz instrument. Phosphorescence lifetime measurements were performed using a light guide phosphorimeter designed by applicants. HPLC analysis of reaction mixtures was carried out on a SpectraPhysics 8800 gradient system, using an Adsorbosphere HS C4 100×4.6 mm column and methanol:water mixture as a mobile phase.

Data set [2] can be described thus: Phosphorescence lifetime at zero oxygen, light guide phosphorimeter.
From the text: (§2) Solvents for phosphorescence measurements were degassed by three freeze-pump-thaw cycles and stored in a vacuum over sodium benzophenone ketyl (THF) or 4 Å molecular sieves (DMF). The solvents were vacuum transferred immediately prior to the phosphorescence measurements and samples were sealed under high vacuum.
(§3) An enzymatic system (glucose-glucose oxidase-catalase) was used for deoxygenation of aqueous solutions and N2-O2 gas mixtures containing either 2.89% of oxygen or 20% oxygen (air) were used for calibration and measurements of the quenching constants.
as §1

A short description of data set [3]: Quenching of phosphorescence by oxygen (Stern-Volmer quenching constant).
From the text: Phosphorescence of certain chemical compounds is quenched by oxygen according to the Stern-Volmer relationship which is stated as follows:
where T0 and T are the phosphorescence lifetimes in the absence of oxygen, PO2 is the oxygen pressure for a lifetime of T, and kQ is the quenching constant. The constant kQ is related to the frequency of collisions between the excited triplet state molecule and molecular oxygen and the probability of energy transfer occurring when these molecules collide.
as §3, §1

Data set [4] is described as follows: Phosphorescence spectra of deoxygenated samples. Particulars: solvent THF, 25 °C. On the procedure: as §2, §1
Phosphorescence of a series of metal-TBP compounds was detected using constant irradiation of samples with light wavelengths at their Q and Soret bands. To observe the phosphorescence phenomena and to record phosphorescence spectra, the samples were intensively deoxygenated. Accordingly, highly degassed dimethylformamide (DMF) or THF were used as solvents. The phosphorescence spectra of LuTPhTBP and PdTPhTBP are depicted in FIGS. 5 and 6, respectively.

The mark [5] stands for this setting: Phy. sol. (aqueous, pH 7.0), 38 °C.
The mark [6] stands for this setting: solvent DMF, TBP/TPhTBP compounds.
Setting [7] is: solvent DMF, TPhTNP compounds, average position of split Soret band.
Where [8] appears, read: Phy. sol. adjusted to pH 7.4, 38 °C.

In data set [1] (solvent water), `O=C(O)CNS(=O)(=O)c1ccc(C2=C3N=C(C(c4ccc(S(=O)(=O)NCC(=O)O)cc4)=c4c5ccccc5c5[n]4[Pd][n]4c2c2ccccc2c4C(c2ccc(S(=O)(=O)NCC(=O)O)cc2)=C2N=C(C=5c4ccc(S(=O)(=O)NCC(=O)O)cc4)c4ccccc42)c2ccccc23)cc1` [PdTPhTBP (glyc)4] displayed a Q-band of 620 nm and a Soret band of 421 nm. Further, the “Phosphorescent lifetime at zero-oxygen concentration” value (“Phosphorescent lifetime” for short) in data set [2] (setting [5]) turned out to be 408 μs. Moreover, the “Quenching constant at a temperature of 38° C.” value (“Quenching constant” below) in data set [3] (setting [5]) is recorded as 186 Torr^−1s^−1.

As for `[OH][La]1[n]2c3c4ccccc4c2C(c2ccccc2)=C2N=C(C(c4ccccc4)=c4c5ccccc5c([n]41)=C(c1ccccc1)C1=NC(=C3c3ccccc3)c3ccccc31)c1ccccc12` [La(OH)TPhTBP], the Q-band in data set [1] (solvent DMF) is on record as 633 nm. In addition, in data set [1] (setting [6]), the Soret band was 432 nm.

Consider `c1ccc(C2=C3N=C(C(c4ccccc4)=c4c5ccccc5c5[n]4[Pt][n]4c2c2ccccc2c4C(c2ccccc2)=C2N=C(C=5c4ccccc4)c4ccccc42)c2ccccc23)cc1` [PtTPhTBP], for which the Q-band in data set [1] (solvent DMF) is 630 nm. In addition, the Soret band in data set [1] (setting [6]) was determined as 437 nm.

In data set [1] (solvent CHCl3), `c1ccc(C2=C3N=C(C(c4ccccc4)=c4c5ccccc5c5[n]4[Pd][n]4c2c2ccccc2c4C(c2ccccc2)=C2N=C(C=5c4ccccc4)c4ccccc42)c2ccccc23)cc1` [PdTPhTBP, palladium meso-tetraphenyltetrabenzoporphyrin] returned a Q-band of 610 nm and a Soret band of 420 nm. The compound also returned a Phosphorescence maximum in data set [4] of 784 nm. Also, in data set [2] (solvent THF, 25 °C), the “Phosphorescent lifetime” value amounted to 127 μs.

`c1ccc(C2=C3N=C(C(c4ccccc4)=c4c5cc6ccccc6cc5c5[n]4[Pd][n]4c2c2cc6ccccc6cc2c4C(c2ccccc2)=C2N=C(C=5c4ccccc4)c4cc5ccccc5cc42)c2cc4ccccc4cc23)cc1` [PdTPhTNP] yielded a Q-band in data set [1] (solvent DMF) of 694 nm. The Soret band in data set [1] (setting [7]) was 415 nm. The “Phosphorescent lifetime” value in data set [2] (solvent THF, 25 °C) turned out to be 165 μs.

Regarding `c1ccc(C2=C3N=C(C(c4ccccc4)=c4c5cc6ccccc6cc5c5[n]4[Pt][n]4c2c2cc6ccccc6cc2c4C(c2ccccc2)=C2N=C(C=5c4ccccc4)c4cc5ccccc5cc42)c2cc4ccccc4cc23)cc1` [PtTPhTNP], in data set [1] (solvent DMF), the Q-band is given as 700 nm. In addition, the Soret band in data set [1] (setting [7]) worked out at 425 nm.

Turning to `O=C(O)Cc1ccc(NS(=O)(=O)c2ccc(C3=C4N=C(C(c5ccc(S(=O)(=O)Nc6ccc(CC(=O)O)cc6)cc5)=c5c6ccccc6c6[n]5[Pd][n]5c3c3ccccc3c5C(c3ccc(S(=O)(=O)Nc5ccc(CC(=O)O)cc5)cc3)=C3N=C(C=6c5ccc(S(=O)(=O)Nc6ccc(CC(=O)O)cc6)cc5)c5ccccc53)c3ccccc34)cc2)cc1` [PdTPhTBP (sulfonamide)4], in data set [1] (solvent water), the Q-band was determined as 630 nm and the Soret band is given as 415 nm. In data set [2] (setting [8]), the “Phosphorescent lifetime” value is on record as 377 μs. For the same compound, in data set [3] (setting [8]), the “Quenching constant” value is on record as 185 Torr^−1s^−1.

With `c1ccc(C2=C3N=C(C(c4ccccc4)=c4c5ccccc5c5[n]4[Sn][n]4c2c2ccccc2c4C(c2ccccc2)=C2N=C(C=5c4ccccc4)c4ccccc42)c2ccccc23)cc1` [SnTPhTBP], in data set [1] (solvent Acetone), the Q-band stood at 642 nm and the Soret band was 438 nm.

For `[OH][Lu]1[n]2c3c4cc5ccccc5cc4c2C(c2ccccc2)=C2N=C(C(c4ccccc4)=c4c5cc6ccccc6cc5c([n]41)=C(c1ccccc1)C1=NC(=C3c3ccccc3)c3cc4ccccc4cc31)c1cc3ccccc3cc12` [Lu(OH)TPhTNP], the Q-band in data set [1] (solvent DMF) is 709 nm. The Soret band in data set [1] (setting [7]) amounted to 440 nm.

For “lutetium (Lu) tetraphenyltetranaphthoporphyrin [LuTPhTNP]”, the “Phosphorescent lifetime” value in data set [2] (solvent DMF, 25 °C) is given as 172 μs.

`[OH][Lu]1[n]2c3c4ccccc4c2C(c2ccccc2)=C2N=C(C(c4ccccc4)=c4c5ccccc5c([n]41)=C(c1ccccc1)C1=NC(=C3c3ccccc3)c3ccccc31)c1ccccc12` [Lu(OH)TPhTBP, lutetium (hydroxy) meso-tetraphenyltetrabenzoporphyrin]: in data set [1] (solvent Acetone), the Q-band stood at 628 nm and the Soret band was 423 nm.

In data set [1] (solvent water), `O=S(=O)(N[C@H]1C(O)O[C@H](CO)[C@@H](O)[C@@H]1O)c1ccc(C2=C3N=C(C(c4ccc(S(=O)(=O)N[C@H]5C(O)O[C@H](CO)[C@@H](O)[C@@H]5O)cc4)=c4c5ccccc5c5[n]4[Pd][n]4c2c2ccccc2c4C(c2ccc(S(=O)(=O)N[C@H]4C(O)O[C@H](CO)[C@@H](O)[C@@H]4O)cc2)=C2N=C(C=5c4ccc(S(=O)(=O)N[C@H]5C(O)O[C@H](CO)[C@@H](O)[C@@H]5O)cc4)c4ccccc42)c2ccccc23)cc1` (stereo partly drawn) [PdTPhTBP (glucosamine)4] yielded a Q-band of 615 nm and a Soret band of 409 nm. Besides, in data set [2] (setting [5]), the “Phosphorescent lifetime” value is given as 431 μs. Moreover, the “Quenching constant” value in data set [3] (setting [5]) is given as 194 Torr^−1s^−1.

Take `c1ccc(C2=C3N=C(C(c4ccccc4)=c4c5ccccc5c5[n]4[Zn][n]4c2c2ccccc2c4C(c2ccccc2)=C2N=C(C=5c4ccccc4)c4ccccc42)c2ccccc23)cc1.c1ccncc1.c1ccncc1` [ZnTPhTBP (Pyridine)2]: in data set [1] (solvent Acetone), the Q-band is 625 nm and the Soret band is reported as 428 nm.

Take `[OH][Y]1[n]2c3c4ccccc4c2C(c2ccccc2)=C2N=C(C(c4ccccc4)=c4c5ccccc5c([n]41)=C(c1ccccc1)C1=NC(=C3c3ccccc3)c3ccccc31)c1ccccc12` [Y(OH)TPhTBP]: in data set [1] (solvent Acetone), the Q-band was found to be 630 nm and the Soret band is 431 nm.

`[Zn].c1ccc2c(c1)-c1cc3[nH]c(cc4nc(cc5[nH]c(cc-2n1)c1ccccc51)-c1ccccc1-4)c1ccccc31` [ZnTBP (Pyridine)2, zinc tetrabenzoporphyrin]: the Q-band in data set [1] (solvent DMF) was found to be 624 nm. In addition, the Soret band in data set [1] (setting [6]) is on record as 425 nm.

`c1ccc(C2=C3N=C(C(c4ccccc4)=c4c5ccccc5c5[n]4[Pb][n]4c2c2ccccc2c4C(c2ccccc2)=C2N=C(C=5c4ccccc4)c4ccccc42)c2ccccc23)cc1` [PbTPhTBP]: in data set [1] (solvent Acetone), the Q-band is 663 nm and the Soret band came out at 487 nm.

`[OH][La]1[n]2c3c4cc5ccccc5cc4c2C(c2ccccc2)=C2N=C(C(c4ccccc4)=c4c5cc6ccccc6cc5c([n]41)=C(c1ccccc1)C1=NC(=C3c3ccccc3)c3cc4ccccc4cc31)c1cc3ccccc3cc12` [La(OH)TPhTNP] came in with a Q-band in data set [1] (solvent DMF) of 708 nm. Further, the Soret band in data set [1] (setting [7]) was 440 nm.
